# Reference: US8476317B2, “N-alkylcarbonyl-amino acid ester compounds and their use for cough and pharyngitis” (priority 2011, dated 2013)
# “And” between values parts separate entries of the source, which are not always exact repeats. Equal entries are not always repeated.
# Experiments:
# TRP-M8 = target: T1, TRP-M8 (Homo sapiens, UniProt Q7Z2W7); assay: TRP-M8 receptor assay; type: cell-based; details: for EC50: data from Prof. D. Bautista's laboratory
# T1 construct: expressed in transfected cells
# Source text: Psychic events such as refreshment, soothing, cooling, irritation, itch, and pain cannot be verbalized by animals (animals cannot say “it feels cold”, “ouch”, or that “it itches”). […] Receptor assays, based on cells transfected with the genes for proteins associated with thermosensation (e.g., TRP-M8, TRP-A1, TRP-V1) may be used as a model of sensory processes and provide quantitative data. […] The in vitro assay gives no information on onset and offset of action, but yields information on comparative potency of the two enantiomers. Further evaluation of the pharmacological properties of the test substances were based on direct tests in human subjects.
# Thus, the D-configuration of the α-carbon of Ala is an absolute requirement for therapeutic utility in cough. This separation of activity between the D- and L-enantiomers was also apparent in the TRP-M8 receptor assay (data from Prof. D. Bautista's laboratory at the University of California at Berkeley). […] Thus, in an equal mixture (racemic) of D-Ala and L-Ala enantiomers, it is likely that ˜97% of the anti-cough activity would be contributed by the D-enantiomer (of Formula 1).
# oral cavity / oropharynx = assay: Cooling in oral cavity after application on dorsal surface of tongue; type: in vivo, human; details: dose of 1 to 2 mg, normal subjects
# Protocol: The subject is instructed to close and hold the substance in the mouth for at least 10 seconds and not to swallow. The description of sensations is then recorded at 5 to 10 minute intervals.
# The compounds of Formula 1 are white crystalline solids at room temperatures. These compounds were tested as the pure powder (>95% purity, by HPLC analysis), or mixed 1:1 with powdered or granulated sugar. The test substances were applied at 2 to 5 mg on the mid-point of the dorsal surface of the tongue using a metal spatula or a plastic applicator. After depositing the test substance on the tongue, the subject was instructed to keep the mouth closed and allow the fluids of the mouth to inter-mix with the test substance and to distribute it to the back of the mouth (oropharynx). The presence and duration of subjective sensations from the mouth was then recorded.
# philtrum skin = assay: Cooling on facial (philtrum) skin, ointment; type: in vivo, human; details: for skin or eye irritancy: in vivo; for Philtrum Skin (min), duration of cooling: 5 mg/ml in Aquaphor ointment
# Source text: A reliable place for topical application is the skin above the upper lip (above the vermilion border of the lips), on the philtrum, lateral to the philtrum until the nasolabial folds, and on the lower nostrils (subnasale). This part of the face is known to be densely innervated with cold receptors, second only to the surfaces of the eyeball and anogenitalia. At this locus, tingling, cool and cold sensations in the skin may be experienced and rated for time of onset and intensity.
# The intervals for recording sensations are 5 to 10 minutes, until two successive zeroes are obtained. The results (shown in FIG. 1) are averaged values of 4 to 6 separate trials in the same individual. The data are plotted using SigmaPlot® (Systat Software, Point Richmond Calif.) and a smoothing function with a negative exponential was used for analysis and statistical fit of the results. Confirmatory trials of cooling action of the long-acting NACE compounds were obtained in 2 to 4 individuals but not quantified for some because of the large number of chemicals that were evaluated.
# (§1) The onset of drug action is taken as the time to reach 2 units of coolness intensity, and offset of drug action is the time when coolness intensity drops below 2, after previously surpassing 2 units. The duration of cooling action is defined as the offset time minus the onset time. […] The quality of the sensation is noted, for example, as pure refreshing coolness, or if the sensation is accompanied by irritation (stinging or burning). The quality of the sensation is not rated for intensity.
# For bioassay on the skin, approximately 30 mg was stirred and dissolved in 3 g of warm liquid Aquaphor® ointment to a yield a 40 mM (˜1% wt/vol) ointment. The exact amount was adjusted so that the molar equivalent was about 35 to 40 mM. After cooling, 40 to 70 mg of the solid ointment was placed on the tip of a plastic stick and applied to the skin above the upper lip, on the philtrum, and lateral to the philtrum, up to the nasolabial folds, of test subjects and the onset and duration of cooling sensations noted.
# The intervals for recording sensations were 5 to 10 minutes, until two successive zeroes were obtained. The results (shown in FIG. 1) are averaged values of 4 to 6 separate trials in the same individual. The data are plotted using SigmaPlot® (Systat Software, Point Richmond, Calif., USA) and a smoothing function with a negative exponential was used for analysis and statistical fit of the results.
# as §1, with “was” for “is”, “was also noted: such” for “is noted, for example,”
# In the results of FIG. 1, the test compounds were singly applied to the skin above the upper lips as a ˜1% wt/vol (10 mg/ml) ointment. Subsequently, for the results shown in Table 3, the test dose on the philtrum was reduced to a 0.5% wt/vol (5 mg/ml) ointment. The reason for choosing a lower dose was to increase the number of trials per individual and to have a reduced chance of substances accumulating in the skin.
# T1 sequence (Q7Z2W7 whole entry, species assumed): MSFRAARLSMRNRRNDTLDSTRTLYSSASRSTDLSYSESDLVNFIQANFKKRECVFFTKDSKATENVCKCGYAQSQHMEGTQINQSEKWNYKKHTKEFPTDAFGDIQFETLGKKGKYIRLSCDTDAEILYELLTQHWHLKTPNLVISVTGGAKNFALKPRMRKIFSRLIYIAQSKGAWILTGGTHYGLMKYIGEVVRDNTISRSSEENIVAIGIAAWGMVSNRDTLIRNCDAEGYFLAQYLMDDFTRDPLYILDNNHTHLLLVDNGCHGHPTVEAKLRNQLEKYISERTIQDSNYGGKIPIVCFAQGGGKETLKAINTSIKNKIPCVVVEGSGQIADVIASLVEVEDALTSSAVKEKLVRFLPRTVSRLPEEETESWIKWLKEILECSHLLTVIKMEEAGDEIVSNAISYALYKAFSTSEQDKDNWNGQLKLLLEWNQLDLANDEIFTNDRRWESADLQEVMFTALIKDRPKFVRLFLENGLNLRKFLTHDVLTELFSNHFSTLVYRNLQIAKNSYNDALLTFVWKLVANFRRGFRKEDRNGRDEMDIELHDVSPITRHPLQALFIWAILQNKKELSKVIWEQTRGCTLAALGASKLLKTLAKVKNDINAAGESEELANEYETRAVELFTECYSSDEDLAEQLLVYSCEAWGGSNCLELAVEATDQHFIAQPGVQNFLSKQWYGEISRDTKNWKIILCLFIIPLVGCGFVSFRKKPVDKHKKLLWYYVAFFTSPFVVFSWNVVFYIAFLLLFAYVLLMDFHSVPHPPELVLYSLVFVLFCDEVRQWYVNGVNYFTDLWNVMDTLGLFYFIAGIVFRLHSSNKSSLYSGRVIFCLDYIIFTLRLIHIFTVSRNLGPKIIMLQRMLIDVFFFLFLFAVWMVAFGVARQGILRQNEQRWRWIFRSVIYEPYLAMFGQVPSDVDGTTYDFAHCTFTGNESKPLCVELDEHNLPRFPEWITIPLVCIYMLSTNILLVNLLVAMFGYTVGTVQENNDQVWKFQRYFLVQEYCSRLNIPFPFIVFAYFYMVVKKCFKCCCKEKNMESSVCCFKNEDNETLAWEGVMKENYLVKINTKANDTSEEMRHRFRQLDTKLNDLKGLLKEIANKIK
Compound,"difference of EC50, D-Ala-OEt versus L-Ala-OEt (TRP-M8; TRP-M8 receptor assay) [fold]",EC50 (TRP-M8),duration of cooling sensations on the tongue (oral cavity / oropharynx),skin or eye irritancy (philtrum skin),"Philtrum Skin (min), duration of cooling (philtrum skin) [min]"
"CCOC(=O)[C@@H](C)NC(=O)[C@@H]1C[C@H](C)CC[C@H]1C(C)C [D-Ala-OEt, (R)-2-[((1R,2S,5R)-2-isopropyl-5-methyl-cyclohexanecarbonyl)-amino]-propionic acid ethyl ester]",37,480 nM and 500 nM,about 30 minutes,without skin or eye irritancy,
"COC(=O)[C@@H](C)NC(=O)[C@@H]1C[C@H](C)CC[C@H]1C(C)C [D-Ala-OMe, (R)-2-[((1R,2S,5R)-2-isopropyl-5-methyl-cyclohexanecarbonyl)-amino]-propionic acid methyl ester]",,,about 30 minutes,without skin or eye irritancy,77
CCOC(=O)C(C)NC(=O)[C@@H]1C[C@H](C)CC[C@H]1C(C)C (stereo partly drawn) [L-Ala-OEt],,18000 nM,,,34
